Measurements reported in patent US11655297B2, “ILDR2 antagonists and combinations thereof” (Bayer Aktiengesellschaft, priority 2017, dated 2023).

Key:
[1] = system: CT26 C4.4a tumor model; experiment: CT26 C4.4a model, combination with C4.4A ADC; format: in vivo, mouse; conditions: for Mean tumor size: BAY 1905254 10 mg/kg i.p. q3d×5, C4.4A ADC 10 mg/kg i.v. q4d×3, starting day 6
Protocol: This model is a derivative of the parental CT26 model expressing murine C4.4a on the surface of the tumor cells.
C4.4A ADC (antibody-drug conjugate BAY1129980), which is composed of an antibody against a structural homolog of the urokinase-type plasminogen activator receptor (uPAR) and tumor-associated antigen, C4.4a, and conjugated with a cytotoxic agent, was dosed 10 mg/kg i.v. q4d×3, starting day 6.

[2] = system: IL-2 secretion of CD4 T cells co-cultured with M-CSF mature monocytes; experiment: Mixed lymphocyte reaction (MLR), antibody-evoked IL-2 secretion by Elisa; format: cell-based
Protocol: To determine the effect of these antibodies on ILDR2 function an immunomodulation assay was carried out, namely a mixed lymphocyte reaction assay. The mixed lymphocyte reaction (MLR) is a test in which populations of lymphocytes are mixed together, and the resulting reactions are measured. Technically, it is an ex-vivo cellular immune assay that occurs between two allogeneic lymphocyte populations. In a one-way MLR, only one lymphocyte population can respond or proliferate. In a two-way MLR, both populations can proliferate. MLR's are performed to assess how T cells react to external stimuli, e.g., exposure to immune checkpoint inhibitors, like anti PD-1 antibodies (Wang et al 2014) and anti-PD-L1 antibodies. In the present context, antibody-evoked IL-2 secretion was measured with this assay.
In the present case, CD4 T cells from one donor were co-cultured with M-CSF mature monocytes from another donor in the presence of various ILDR2 antibodies, a function-blocking PD-L1 antibody or an isotype control for 5 days. […] Results are shown in FIG. 9B and the following table 3.

[3] = system: CT26 syngeneic mouse model; experiment: Tumor shrinking activity in CT26 syngeneic mouse model (FIG. 9C)
Protocol: FIG. 9C: Tumor shrinking activity of selected anti ILDR2 antibodies according to the present invention in a CT26 syngeneic mouse model. Tumor shrinking activity is measured as decrease of tumor volume, relative to an Isotype control.

[4] = system: B16-F10 OVA tumor model; experiment: B16-F10 OVA model, combination with Docetaxel; conditions: for tumor size of the treatment group vs. Control (T/C): B16-F10 OVA, BAY 1905254 10 mg/kg i.p. q3d×3, Docetaxel once 20 mg/kg i.v.; for Mean tumor size: BAY 1905254 10 mg/kg i.p. q3d×3 starting day 8, Docetaxel once 20 mg/kg i.v. on day 8
Protocol: Eight weeks old female C57B1/6N Cr1 BR mice (body weight 18-20 g) from Charles River Deutschland, Sulzfeld were used for the B16-F10 OVA tumor model. The model is a derivative of the B16F10 cell line expressing the allo-antigen ovalbumin which can be recognized by antigen-specific T cells. The experiment was initiated after an acclimatization period of 5 days. Animals were kept in a 12-hour light/dark cycle. Food and water was available ad libitum. Housing temperature was maintained at 21° C. Mice (n=12 per group) were s.c. inoculated with 1×10^4 B16F10 OVA tumor cells into the left flank and assigned to experimental groups. At treatment initiation, animals were marked and each cage was labeled with the cage number, study number and the number of animals per cage.
Agents were dosed i.p. at 10 mg/kg q3d×3, starting day 8.

[5] = system: CT26 tumor model; experiment: CT26 therapeutic, combination with aPD-L1; format: in vivo, mouse; conditions: aPD-L1 10 mg/kg
From the text: (§1) The following syngeneic tumor models were subcutaneously used in in vivo experiments: B16-F10 cells represent a mouse melanoma cell line derived from the skin of C57BL/6J mice. CT26 is an N-nitroso-N-methylurethane-(NNMU) induced, undifferentiated colon carcinoma cell line. It is a fibroblast cell type and derives from BALB/c mice. 3C9-D11-H11 cells are hybridoma B lymphocytes generated by fusion of spleen cells with Sp2/0-Ag14 myeloma cells. The spleen cells derive from BALB/c mice that were immunized with purified porcine parvovirus (PPV).

[6] = system: B16F10 tumor model; experiment: B16-F10 preventive treatment, syngeneic tumor model; format: in vivo, mouse; conditions: for Mean tumor size: 10 mg/kg i.p. q3d×6 from tumor inoculation
From the text: as §1

[7] = system: B16-F10 tumor model; experiment: B16-F10 therapeutic treatment, combination with aPD-L1; format: in vivo, mouse
From the text: as §1

[8] = system: B16F10 syngeneic mouse model; experiment: Tumor shrinking activity in B16F10 syngeneic mouse model (FIG. 9A); format: in vivo
Protocol: Tumor shrinking activity is measured as decrease of tumor volume, relative to an isotype control.
To determine the anti-tumor efficacy, such as for example, the tumor shrinking effect of the respective binders, two syngeneic mouse models (B16F10, CT26) were used as discussed above.

[9] = system: B16F10 OVA tumor model; experiment: B16F10 OVA model, combination with OVA vaccine and CpG oligo; format: in vivo, mouse; conditions: for Mean tumor size: BAY 1905254 10 mg/kg i.p. q3d×3 starting day 8, 50 μg OVA + 10 μg CPG s.c. on day 9
Protocol: 50 μg OVA (in 50 μl)+10 μg CPG (in 10 μl)+140 μl PBS=200 μl/mouse was applied subcutaneously to the left flank adjacent to the tumor, on day 9. The CpG oligonucleotide was ODN 1826 (5′-[…]-3′; bases are phosphorothioate/nuclease resistant) that is specific for mouse TLR9 was used (Invivogen MA-1826-5).

[10] = system: 3C9-D11-H11 tumor model; experiment: 3C9-D11-H11 therapeutic, combination with aPD-L1; format: in vivo, mouse
From the text: as §1

BAY1905254: anti ILDR2 antibody, heavy chain SEQ ID NO:42, light chain SEQ ID NO:43
tumor size of the treatment group vs. Control (T/C) ([1]; CT26 C4.4a, BAY 1905254 10 mg/kg i.p. q3d×5, C4.4A ADC 10 mg/kg i.v. q4d×3): 1.13
tumor growth vs. isotype control (in words) ([1]; FIG. 8, BAY1905254 10 mg/kg i.p., C4.4A ADC 10 mg/kg i.v., from d6, 2 way ANOVA): does not lead to a delay in tumor growth
Mean tumor size ([1]; day 6 post inoculation): 56.89 mm3
Mean tumor size ([1]; day 10 post inoculation): 141.28 mm3
Mean tumor size ([1]; day 12 post inoculation): 220.99 mm3
Mean tumor size ([1]; day 14 post inoculation): 260.95 mm3
Mean tumor size ([1]; day 17 post inoculation): 566.58 mm3
Mean tumor size ([1]; day 19 post inoculation): 706.01 mm3
IL2 concentration (% over isotype control) ([2]; MLR, 5 days, supernatant Elisa): 91 +/− 11%
IL-2 secretion / cytokine induction in MLR (in words) ([2]; vs isotype control or anti PD-L1 antibody): do not mediate IL-2 induction
anti-tumor activity in an in vivo tumor model compared with anti PD-L1 antibody (in words) [3]: comparable to that of an anti PD-L1 antibody
tumor size of the treatment group vs. Control (T/C) [4]: 0.86
tumor growth vs. isotype control (in words) ([4]; B16F10 OVA, BAY1905254 10 mg/kg q3d i.p., Docetaxel 20 mg/kg i.v. once, 2 way ANOVA): moderate delay of tumor growth
Mean tumor size ([4]; day 8 post inoculation): 86.26 mm3
Mean tumor size ([4]; day 11 post inoculation): 97.06 mm3
Mean tumor size ([4]; day 14 post inoculation): 207.75 mm3
Mean tumor size ([4]; day 16 post inoculation): 382.66 mm3
tumor size of the treatment group vs. isotype control (T/C) ([5]; CT26, BAY1905254 3 mg/kg i.p. q3d×3 starting d7): 0.95
tumor growth vs. isotype control (in words) ([5]; CT26, BAY1905254 3 mg/kg q3d i.p. from d7, 2 way ANOVA): no delay of tumor growth
Mean tumor size ([5]; day 7 post inoculation, BAY1905254 3 mg/kg i.p. q3d×3 starting d7): 136.38 mm3
Mean tumor size ([5]; day 10 post inoculation, BAY1905254 3 mg/kg i.p. q3d×3 starting d7): 227.41 mm3
Mean tumor size ([5]; day 13 post inoculation, BAY1905254 3 mg/kg i.p. q3d×3 starting d7): 367.22 mm3
Mean tumor size ([5]; day 15 post inoculation, BAY1905254 3 mg/kg i.p. q3d×3 starting d7): 576.28 mm3
tumor size of the treatment group vs. isotype control (T/C) ([6]; B16-F10 preventive, 10 mg/kg i.p. q3d×6): 0.63
tumor growth vs. isotype control (in words) ([6]; B16F10, 10 mg/kg i.p., start of treatment d0, 2 way ANOVA): significantly delayed
Mean tumor size ([6]; day 3 post inoculation): 34.5 mm3
Mean tumor size ([6]; day 6 post inoculation): 77.3 mm3
Mean tumor size ([6]; day 8 post inoculation): 90.1 mm3
Mean tumor size ([6]; day 11 post inoculation): 286.8 mm3
Mean tumor size ([6]; day 13 post inoculation): 389.2 mm3
Mean tumor size ([6]; day 15 post inoculation): 1059.9 mm3
Mean tumor size ([6]; day 17 post inoculation): 1204 mm3
tumor growth vs. isotype control (in words) ([7]; B16-F10 therapeutic, 10 mg/kg q3d i.p., 2 way ANOVA): No monotherapy efficacy
tumor size of the treatment group vs. isotype control (T/C) ([7]; B16-F10 therapeutic, 10 mg/kg i.p. q3d×5 starting d3): 1.08
Mean tumor size ([7]; day 6 post inoculation, 10 mg/kg i.p. q3d×5 starting d3): 76.07 mm3
Mean tumor size ([7]; day 8 post inoculation, 10 mg/kg i.p. q3d×5 starting d3): 80.52 mm3
Mean tumor size ([7]; day 10 post inoculation, 10 mg/kg i.p. q3d×5 starting d3): 158.01 mm3
Mean tumor size ([7]; day 13 post inoculation, 10 mg/kg i.p. q3d×5 starting d3): 479.92 mm3
Mean tumor size ([7]; day 15 post inoculation, 10 mg/kg i.p. q3d×5 starting d3): 986.99 mm3
tumor shrinkage measured against an isotype control (in words) [8]: do
tumor size of the treatment group vs. Control (T/C) ([9]; B16F10 OVA, BAY 1905254 10 mg/kg i.p. q3d×3, OVA + CPG s.c. once): 0.66
tumor growth vs. isotype control (in words) ([9]; B16F10 OVA, BAY1905254 10 mg/kg q3d i.p., OVA and CPG, 2 way ANOVA): moderate delay of tumor growth
Mean tumor size ([9]; day 9 post inoculation): 66.09 mm3
Mean tumor size ([9]; day 11 post inoculation): 137.52 mm3
Mean tumor size ([9]; day 14 post inoculation): 314.75 mm3
Mean tumor size ([9]; day 16 post inoculation): 483.38 mm3
Mean tumor size ([9]; day 18 post inoculation): 711.93 mm3
tumor size of the treatment group vs. isotype control (T/C) ([10]; 3C9-D11-H11, 10 mg/kg i.p. q3d×5 starting d8): 0.87
tumor growth vs. isotype control (in words) ([10]; 3C9-D11-H11, 10 mg/kg q3d i.p. from d8, 2 way ANOVA): not the case
Mean tumor size ([10]; day 7 post inoculation, 10 mg/kg i.p. q3d×5 starting d8): 63.28 mm3
Mean tumor size ([10]; day 10 post inoculation, 10 mg/kg i.p. q3d×5 starting d8): 67.18 mm3
Mean tumor size ([10]; day 14 post inoculation, 10 mg/kg i.p. q3d×5 starting d8): 198.87 mm3
Mean tumor size ([10]; day 16 post inoculation, 10 mg/kg i.p. q3d×5 starting d8): 314.06 mm3
Mean tumor size ([10]; day 18 post inoculation, 10 mg/kg i.p. q3d×5 starting d8): 574.54 mm3
Mean tumor size ([10]; day 21 post inoculation, 10 mg/kg i.p. q3d×5 starting d8): 1377.9 mm3

CC(=O)O[C@@]12CO[C@@H]1C[C@H](O)[C@@]1(C)C(=O)[C@H](O)C3=C(C)[C@@H](OC(=O)[C@H](O)[C@@H](NC(=O)OC(C)(C)C)c4ccccc4)C[C@@](O)([C@@H](OC(=O)c4ccccc4)[C@H]21)C3(C)C [Docetaxel, reference compound]
tumor size of the treatment group vs. Control (T/C) [4]: 0.74
Mean tumor size ([4]; day 8 post inoculation): 86.56 mm3
Mean tumor size ([4]; day 11 post inoculation): 100.78 mm3
Mean tumor size ([4]; day 14 post inoculation): 165.78 mm3
Mean tumor size ([4]; day 16 post inoculation): 305.33 mm3
